One block for each compound: values may come before it.
Assays:
[1] = tested on: Axenic amastigotes of L. amazonensis; test: Growth inhibition of axenic amastigotes of L. amazonensis (SYBRGREEN DNA quantification); format: cell-based, Leishmania amazonensis; conditions: 72 hours of contact
Source text: (§1) A strain of Leishmania amazonensis (MHOM/BR/73/M2269) were used. Dronedarone hydrochloride and meglumine antimoniate were supplied by Sanofi. Amphotericin B (désoxycholate) and miltefosine were bought at Sigma-Aldrich.
1/Axenic amastigotes of L. amazonensis (isolated parasites)
(§2) The first cellular model which cultivates in a medium based on M199, allows defining the intrinsic activity of a substance on the parasite itself while the second cellular model integrates the capacity of the substance to cross the membrane of the macrophage and that of the phagolysosome. The used macrophages are cells RAW 264.7, which cultivate in medium based on DMEM with 10% of foetal serum of veal. • Determination of the IC50 of each of the molecules
(§3) Solutions of dronedarone in the DMSO, meglumine antimoniate and miltefosine in the water, and amphotericin B in an isotonic glucose solution (G5) were prepared before every experiment. The evaluations in vitro were the object of three independent experiments duplicate. The assays were realized by quantifying the parasitic DNA with the SYBRGREEN as described by Audisio and al. (Eur. J. Med. Chem., 52: 44-50, 2012) as well as by qPCR for intramacrophagic amastigotes with amplification of the alpha-tubuline of the parasite. The results obtained with both methods are similar.

[2] = tested on: Intramacrophagic amastigotes of L. amazonensis; test: Growth inhibition of intramacrophagic amastigotes of L. amazonensis in RAW 264.7 (SYBRGREEN, qPCR); format: cell-based, Leishmania amazonensis
Source text: as §1
2/Intramacrophagic amastigotes of L. amazonensis (parasites hosted in macrophages, as found in dermis, during the cutaneous Leishmaniosis infection).
as §2, §3

[3] = tested on: macrophages (cells RAW 264.7); test: Cytotoxicity on macrophages, Blue Trypan; format: cell-based, human
Method: (§4) Study of the cytotoxicity on macrophages (cells RAW 264.7)
(§5) The non-toxic maximal concentration (CMA) was determined by the technique to the Blue Trypan according to has method described in Audisio and al. (Eur. J. Med. Chem., 52: 44-50, 2012).

[4] = tested on: L. major's intramacrophagic amastigotes; test: Growth inhibition of intramacrophagic amastigotes of L. major in RAW 264.7; format: cell-based, Leishmania major
Source text: (§6) Strains of Leishmania donovani (MHOM/ET/67/HU3) and Leishmania major (MHOM/SU/73/5-ASKH) were used for this study.
(§7) 2/Intramacrophagic amastigotes of L. donovani and L. major (parasites hosted in macrophages, as found in dermis, during the cutaneous Leishmaniosis infection).
(§8) The model of axenic amastigotes is cultivated in a medium based on M199 and allows defining the intrinsic activity of a substance on the parasite itself while the model of intramacrophagic amastigotes integrates the capacity of the substance to cross the membrane of the macrophage and that of the phagolysosome.
(§9) The used macrophages are cells RAW 264.7, which cultivate in a medium based on DMEM with 10% of foetal serum of veal.
(§10) The solutions of dronedarone in the DMSO, meglumine antimoniate and miltefosine in the water, were prepared before every experiment. The evaluations in vitro were the object of three independent experiments.
(§11) The assays were realized by quantifying the parasitic DNA with the SYBRGREEN as described by Audisio and al. (Eur. J. Med. Chem., 52: 44-50, 2012).

[5] = tested on: intramacrophagic amastigotes of L. donovani; test: Growth inhibition of intramacrophagic amastigotes of L. donovani in RAW 264.7; format: cell-based, Leishmania donovani
Source text: as §6, §7, §8, §9, §10, §11

[6] = tested on: L. major's axenic amastigotes; test: Growth inhibition of axenic amastigotes of L. major; format: cell-based, Leishmania major; conditions: 72 hours
Source text: as §6
(§12) 1/Axenic amastigotes of L. donovani and L. major (isolated parasites)
as §8, §10, §11

[7] = tested on: Leishmania amazonensis strains resistant to meglumine antimoniate; test: Chemosensitivity of L. amazonensis strains resistant to meglumine antimoniate, promastigote form; format: cell-based
Method: In vitro study on Leishmania amazonensis strains resistant to meglumine antimoniate (Glucantime®)
On Leishmania amazonensis strains resistant to_meglumine antimoniate (IC50=200 mM) under promastigote form, chemosensitivity to dronedarone is similar that one observed on strains that are not resistant to meglumine antimoniate (active principle of Glucantime®).

[8] = Cytotoxicity on macrophages, Blue Trypan; format: cell-based, human
Method: as §4, §5

[9] = tested on: axenic amastigotes of L. donovani; test: Growth inhibition of axenic amastigotes of L. donovani; format: cell-based; conditions: Leishmania donovani, 72 hours
Source text: as §6, §12, §8, §10, §11

[10] = RAW 264.7 macrophages, Blue Trypan
[11] = Leishmania major, RAW264.7, 72 hours
[12] = Leishmania donovani, RAW264.7, 72 hours
[13] = Leishmania amazonensis, RAW264.7, RAW 264.7, 72 hours of contact

Compound: C[C@@H]1[C@H](O)[C@@H](C)/C=C/C=C/C=C/C=C/C=C/C=C/C=C/[C@H](O[C@@H]2O[C@H](C)[C@@H](O)[C@H](N)[C@@H]2O)C[C@@H]2O[C@](O)(C[C@@H](O)C[C@@H](O)[C@H](O)CC[C@@H](O)C[C@@H](O)CC(=O)O[C@H]1C)C[C@H](O)[C@H]2C(=O)O [amphotericin B]
IC50 [1]: 31 ± 2 nM | IC50 ([2]; RAW 264.7, 72 hours of contact): 47 ± 5 nM | non-toxic maximal concentration (CMA) [3, 10]: 6.25 µM

Compound: CCCCc1oc2ccc(NS(C)(=O)=O)cc2c1C(=O)c1ccc(OCCCN(CCCC)CCCC)cc1 [dronedarone, 2-n-Butyl-3-[4-(3-di-n-butylaminopropoxy)benzoyl]-5-methylsulphonamidobenzofuran]
therapeutic index (CC50/IC50) [4]: > 9 | IC50 [4, 11]: 1320 ± 120 nM | IC50 ([1]; Leishmania amazonensis): 340 ± 60 nM | therapeutic index (CC50/IC50) [5]: > 7 | IC50 [5, 12]: 1670 ± 100 nM | IC50 ([6]; Leishmania major): 2.55 ± 0.51 µM | IC50 [2, 13]: 500 ± 220 nM | chemosensitivity compared with strains not resistant to meglumine antimoniate [7]: similar | non-toxic maximal concentration (CMA) ([3]; human): 12.5 µM | CC50 [8]: > 12.5 µM | IC50 [9]: 47.4 ± 6.27 µM

IC50 [4, 11]: 720 ± 110 nM | IC50 ([1]; Leishmania amazonensis): 900 ± 200 nM | IC50 ([6]; Leishmania major): 5.57 ± 1.5 µM | IC50 [2, 13]: 1870 ± 32 nM
Compound: CCCCCCCCCCCCCCCCOP(=O)([O-])OCC[N+](C)(C)C [miltefosine]
IC50 [5, 12]: 880 ± 100 nM | non-toxic maximal concentration (CMA) ([3]; human): 50 µM | IC50 [9]: 13 ± 1.25 µM

Compound: meglumine antimoniate
IC50 ([4]; 72 hours): 348000 ± 79900 nM | IC50 [1]: 908000 ± 159000 nM | IC50 ([5]; 72 hours): 390000 ± 40500 nM | IC50 [6]: > 1000 µM | IC50 ([2]; RAW 264.7, 72 hours of contact): 134000 ± 10400 nM | non-toxic maximal concentration (CMA) [3, 10]: > 200 µM
